Usually IC50 stands for the concentration at which inhibition is half-maximal.

Each structure is given as a SMILES string.

The target in one test is T1, A-Raf kinase (Homo sapiens, UniProt P10398, Y301D/Y302D).
T1 construct: purchased Sigma
Briefly: Biochemical assay for A-Raf.1 (coupled pyruvate kinase/lactate dehydrogenase). Conditions: read-out: ARAF.1 IC50. In outline:
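IC50 values came from four-parameter sigmoidal fits of percent inhibition, using rates over the 4 to 5 h window of continuous A340 readings (6 h, 30° C). The coupled PK/LDH system tracked NADH oxidation during 5.55 nM A-Raf activity on 30.1 nM MEK at 1 mM ATP, buffer pH 7.5.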

Another test addresses T2, B-Raf kinase (Homo sapiens, UniProt P15056).
T2 construct: GST (N); purchased Sigma
As to the kind of experiment: Biochemical assay for B-Raf.1 (coupled pyruvate kinase/lactate dehydrogenase). Conditions: read-out: BRAF.1 IC50. In outline:
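Reaction rates over the 4–5 h window of a continuous 6 h, 30 °C read were converted to percent inhibition and fitted for IC50. B-Raf (0.13 nM) phosphorylated 30.1 nM MEK with 1 mM ATP; ADP coupled via PK/LDH to NADH loss at 340 nm, 1% DMSO final.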

A further test has as its target T3, C-Raf kinase (Homo sapiens, UniProt P04049, Y340D/Y341D).
T3 construct: Y340D,; GST (N); purchased Sigma
As to the kind of experiment: Biochemical assay for C-Raf.1 (coupled pyruvate kinase/lactate dehydrogenase). Conditions: read-out: CRAF.1 IC50. In a few lines: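 NADH depletion at 340 nm monitored continuously for 6 h at 30° C, with rates taken over 4–5 h. The coupled pyruvate kinase/lactate dehydrogenase reaction used 1 mM ATP, 30.1 nM MEK substrate and 0.43 nM kinase at pH 7.5. IC50 was fitted sigmoidally from percent inhibition of serially diluted compound.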

The next test concerns the target T4, B-Raf (V600E) kinase (Homo sapiens, UniProt P15056, V600E).
T4 construct: B-Raf (V600E) residues 416-766 with a; GST (N); purchased SignalChem
Briefly: Biochemical assay for B-Raf (V600E).1 (coupled pyruvate kinase/lactate dehydrogenase). Conditions: read-out: BRAF V600E.1 IC50. In outline:
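IC50 came from four-parameter sigmoidal fits of percent inhibition, using reaction rates over 3-4 h. Continuous A340 reading (6 h, 30 °C) of a pyruvate kinase/lactate dehydrogenase-coupled reaction: B-Raf V600E 0.03 nM, MEK 30.1 nM, ATP 1 mM, Tris pH 7.5, 1% DMSO.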

The next test has as its system Miapaca-2 cells. As to the kind of experiment: MiaPaca-2 cell proliferation assay (1), resazurin, 96-well. The class given is cell-based. Conditions: Homo sapiens, MIA PaCa-2, inhibition of cell proliferation. How it is done:
MiaPaca-2 Cell Proliferation Assay (1)
Miapaca-2 cells (catalog #CRL-1420) are obtained from the American Type Culture Collect (ATTC, Manassas, VA). Briefly, cells were grown in DMEM supplemented with 10% characterized fetal bovine serum (Invitrogen, Carlsbad, CA), 2.5% New Zealand sourced horse serum and 1% Penicillin/Streptomycin/L-Glutamine at 37° C., 5% CO2, and 95% humidity. Cells are expanded until reaching 70-95% confluency at which point they are subcultured or harvested for assay use. A serial dilution of test compound is dispensed into a 96-well black clear bottom plate in triplicate. Three thousand cells are added per well in 200 μL complete growth medium in the 96-well plate. Plates are incubated for 67-72 hours at 37° C., 5% CO2, and 95% humidity. At the end of the incubation, 40 μL of a 440 μM solution of resazurin (Sigma, St. Louis, MO) in PBS is added to each well of the plate and plates are incubated for an additional 5-6 hours at 37° C., 5% CO2, and 95% humidity. Plates are read on a Synergy2 or equivalent reader (Biotek, Winooski VT) using an excitation of 540 nm and an emission of 600 nm. Data is analyzed using Prism software (GraphPad, San Diego, CA) to calculate IC50 values.
A general note: Resazurin is reduced to fluorescent resorufin, in cell work by metabolically active cells.

T3 sequence (P04049 307-648 Y340D/Y341D): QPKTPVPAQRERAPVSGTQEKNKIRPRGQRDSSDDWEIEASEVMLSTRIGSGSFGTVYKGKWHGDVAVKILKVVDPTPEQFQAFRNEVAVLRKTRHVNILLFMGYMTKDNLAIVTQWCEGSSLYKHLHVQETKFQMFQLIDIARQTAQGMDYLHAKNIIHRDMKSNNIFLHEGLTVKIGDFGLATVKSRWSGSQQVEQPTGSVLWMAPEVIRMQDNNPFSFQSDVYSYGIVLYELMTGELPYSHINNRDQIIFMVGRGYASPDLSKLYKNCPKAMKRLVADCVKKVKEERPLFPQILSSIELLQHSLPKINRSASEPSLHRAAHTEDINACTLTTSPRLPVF
T2 sequence (P15056 416-766): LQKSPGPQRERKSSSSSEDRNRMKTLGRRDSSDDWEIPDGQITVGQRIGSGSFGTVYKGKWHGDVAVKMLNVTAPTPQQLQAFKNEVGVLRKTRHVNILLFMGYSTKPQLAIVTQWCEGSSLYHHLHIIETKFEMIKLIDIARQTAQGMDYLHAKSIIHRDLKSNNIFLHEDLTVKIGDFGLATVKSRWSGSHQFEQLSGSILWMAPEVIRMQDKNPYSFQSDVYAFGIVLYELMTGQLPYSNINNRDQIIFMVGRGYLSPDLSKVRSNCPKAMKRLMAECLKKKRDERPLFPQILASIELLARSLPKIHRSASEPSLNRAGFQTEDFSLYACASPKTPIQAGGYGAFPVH
T4 sequence (P15056 416-766 V600E): as the sequence (P15056 416-766) above, with V185E counted along it
T1 sequence (P10398 with tags, fused parts or gaps Y301D/Y302D): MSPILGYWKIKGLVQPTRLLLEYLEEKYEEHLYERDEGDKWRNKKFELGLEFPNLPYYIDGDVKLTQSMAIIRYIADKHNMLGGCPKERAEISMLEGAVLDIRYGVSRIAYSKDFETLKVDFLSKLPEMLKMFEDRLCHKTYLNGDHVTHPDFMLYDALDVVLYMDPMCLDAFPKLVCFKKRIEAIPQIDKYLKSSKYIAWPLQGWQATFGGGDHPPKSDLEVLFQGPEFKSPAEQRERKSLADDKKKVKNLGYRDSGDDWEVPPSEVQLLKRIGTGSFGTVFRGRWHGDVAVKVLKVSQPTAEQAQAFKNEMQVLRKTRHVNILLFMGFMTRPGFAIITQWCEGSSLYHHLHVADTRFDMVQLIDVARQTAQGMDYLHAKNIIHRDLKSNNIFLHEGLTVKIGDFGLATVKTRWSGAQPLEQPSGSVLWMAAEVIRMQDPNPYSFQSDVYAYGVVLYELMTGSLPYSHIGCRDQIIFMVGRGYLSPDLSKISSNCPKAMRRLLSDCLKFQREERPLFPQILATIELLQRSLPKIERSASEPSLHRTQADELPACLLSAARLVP

For `Cc1ccc(NC(=O)Nc2cnn(CC(F)(F)F)c2)cc1-c1cc(OCCO)nc(N2CCOCC2)c1` [Example 45], the IC50 is greater than 1 µM on A-Raf kinase; greater than 1 µM on B-Raf kinase; 0.1 to 0.5 µM on C-Raf kinase; no more than 0.1 µM on B-Raf (V600E) kinase; 1 to 10 µM with Miapaca-2 cells.

`Cc1ccc(NC(=O)Nc2cnn(C(C)(C)C)c2)cc1-c1cc(OCCO)nc(N2CCOCC2)c1` [Example 44]: the IC50 at A-Raf kinase is greater than 1 µM; at B-Raf kinase it was 0.1 to 0.5 µM; on C-Raf kinase, 0.1 to 0.5 µM; at B-Raf (V600E) kinase it was no more than 0.1 µM; in the test with Miapaca-2 cells, 1 to 10 µM.
